Assays:
Assay type in all cases: cell-based
Conditions in all cases: after 10, 20, 40 and 60 minutes at all dilutions 1:100, 1:200, 1:400, 1:800
Staphylococcus aereus = assay: Antimicrobial testing by agar dilution, St. Aereus
Procedure: (§1) The antimicrobial properties of the 4-[4,4-bis(4-chlorophenyl)-2,5-dioxoimidazolidin-1-yl]butanoic acid were studied by the method of agar dilution. Test solutions of each compound was prepared in concentration of 1% using dimethylformamide as a solvent then they are diluted in physiological solution to obtain the final experimental dilutions 1:100, 1:200, 1:400, 1:800. The effect of these substances are compared with furacillin in a controllable study. The testing microbes used were gram positive bacteria Staphylococcus aereus, gram negative bacteria Escherichia Coli, Pseudomonas aeruginosa and Candida albicans fungi were taken. The experiments used for this survey were meat-pentonlu agar (EPA) for cultivation of bacteria and Saburo environment for fungi. Each experiment used iml of test solution on each plate 500 min. Add 2 drops of emulsified with microbes feel. All experimental samples were taken from the agar after 10, 20, 40, 60 minutes in the environment on the basis of Patrk planted. Bacteria were cultivated at a temperature of 37° C. for 1 day and the mushroom was kept in a thermostat for […] at a temperature of 28° C. in the. Then results were checked.

Escherichia Coli = assay: Antimicrobial testing by agar dilution, E. Coli
Procedure: as §1

Pseudomonas aeruginosa = assay: Antimicrobial testing by agar dilution, Ps. aeruginosa
Procedure: as §1

Candida albicans = assay: Antimicrobial testing by agar dilution, Candida albicans
Procedure: as §1

Measured: inhibition activity (summary in words)

O=C(O)CCCN1C(=O)NC(c2ccc(Cl)cc2)(c2ccc(Cl)cc2)C1=O [4-[4,4-bis(4-chlorophenyl)-2,5-dioxoimidazolidin-1-yl]butanoic acid]
higher inhibition activity: Staphylococcus aereus | Escherichia Coli | Pseudomonas aeruginosa | Candida albicans
